One compound from ChEMBL document CHEMBL5579851, “Synthesis and antifungal evaluation of novel triazole derivatives bearing a pyrazole-methoxyl moiety” (Eur J Med Chem, 2024) can be followed below.

Molecules are shown by their SMILES. ≈ marks a conversion by molar mass, not a printed value. Calls of active or inactive are those of the source. No cut-off for these calls is given here.

For series [1], the system named is Candida albicans. Put plainly: Antifungal activity against Candida albicans SC5314 assessed as inhibition of fungal growth incubated for 48 hrs by CLSI based broth microdilution assay. The series is classed as functional.
Series [2] has as its system Candida albicans. Briefly: Antifungal activity against fluconazole-resistant Candida albicans 904 assessed as inhibition of fungal growth incubated for 48 hrs by CLSI based broth microdilution assay. The series is classed as functional.
Series [3] relates to [Candida] auris. Put plainly: Antifungal activity against fluconazole-resistant Candida auris 891 assessed as inhibition of fungal growth incubated for 48 hrs by CLSI based broth microdilution assay. The series is classed as functional. The conditions noted are these: Candidozyma auris. On the technique in general: Broth dilution looks for growth in wells or tubes with falling amounts of substance.

For series [4], the system named is [Candida] auris. Briefly: Antifungal activity against fluconazole-resistant Candida auris 919 assessed as inhibition of fungal growth incubated for 48 hrs by CLSI based broth microdilution assay. The series is classed as functional. The conditions noted are these: Candidozyma auris.
For series [5], the system named is Saccharomyces cerevisiae. Put plainly: Antifungal activity against recombinant Saccharomyces cerevisiae Y2765 overexpressing CauMdr1 assessed as inhibition of fungal growth incubated for 48 hrs by CLSI based broth microdilution assay. The series is classed as functional.
In series [6] the test system is Saccharomyces cerevisiae. Briefly: Antifungal activity against recombinant Saccharomyces cerevisiae Y2374 overexpressing CgErg11 assessed as inhibition of fungal growth incubated for 48 hrs by CLSI based broth microdilution assay. The series is classed as functional.
In series [7] the test system is Saccharomyces cerevisiae. Briefly: Antifungal activity against recombinant Saccharomyces cerevisiae Y2721 overexpressing CpErg11/CpCpr assessed as inhibition of fungal growth incubated for 48 hrs by CLSI based broth microdilution assay. The series is classed as functional.
Series [8] relates to Saccharomyces cerevisiae. Put plainly: Antifungal activity against recombinant Saccharomyces cerevisiae Y2711 overexpressing CnErg11 assessed as inhibition of fungal growth incubated for 48 hrs by CLSI based broth microdilution assay. The series is classed as functional.
Series [9] has as its system Saccharomyces cerevisiae. Put plainly: Antifungal activity against recombinant Saccharomyces cerevisiae Y2768 overexpressing CauErg11 T132F mutant assessed as inhibition of fungal growth incubated for 48 hrs by CLSI based broth microdilution assay. The series is classed as functional.
The subject of a further series is Candida tropicalis. Put plainly: Potency index, ratio of ravuconazole MIC to test compound MIC for antifungal activity against Candida tropicalis 8915 assessed as inhibition of fungal growth incubated for 48 hrs by CLSI based broth microdilution assay. The series is classed as functional.
Another series deals with Cryptococcus neoformans. Briefly: Antifungal activity against Cryptococcus neoformans 32609 assessed as inhibition of fungal growth at 0.125 ug/ml measured up to 48 hrs by TECAN plate reader analysis. The series is classed as functional, organism-based. Conditions: dose 0.125 µg/ml.
Series [10] concerns the target Lanosterol 14-alpha demethylase (Candida albicans (strain SC5314 / ATCC MYA-2876) (Yeast), UniProt P10613). Briefly: Inhibition of CYP51 in Candida albicans SC5314 assessed as 14alpha-methylfecosterol level at 0.0625 ug/ml after 8 hrs by GC-MS analysis relative to control. Details: scale not given: the % may be the effect or the level left. The conditions noted are these: at 0.0625 µg/mL.

Lanosterol 14-alpha demethylase, sequence (P10613 whole entry): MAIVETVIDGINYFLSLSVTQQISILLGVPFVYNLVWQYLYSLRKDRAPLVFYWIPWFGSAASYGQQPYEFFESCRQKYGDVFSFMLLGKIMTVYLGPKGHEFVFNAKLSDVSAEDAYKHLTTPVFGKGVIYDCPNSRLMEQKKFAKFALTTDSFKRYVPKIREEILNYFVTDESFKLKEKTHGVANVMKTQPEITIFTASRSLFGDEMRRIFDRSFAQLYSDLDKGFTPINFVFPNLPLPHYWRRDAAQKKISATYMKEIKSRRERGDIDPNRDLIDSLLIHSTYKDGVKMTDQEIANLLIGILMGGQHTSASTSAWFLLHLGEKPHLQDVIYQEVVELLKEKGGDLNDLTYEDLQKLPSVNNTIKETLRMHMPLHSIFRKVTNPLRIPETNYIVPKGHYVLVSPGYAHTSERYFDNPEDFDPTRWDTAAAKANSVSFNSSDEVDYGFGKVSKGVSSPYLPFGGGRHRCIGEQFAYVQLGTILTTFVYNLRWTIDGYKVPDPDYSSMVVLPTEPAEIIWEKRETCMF

On to `C[C@@H](OCc1ccn(Cc2ccc(Cl)cc2)n1)[C@](O)(Cn1cncn1)c1ccc(F)cc1F`, for which the MIC in the series on Candida albicans [1] was at most 0.125 µg/mL; in the series with Candida albicans [2] it was 8 µg/mL (≈ 16.9 µM); in series [Candida] auris [3], 8 µg/mL (≈ 16.9 µM); in [Candida] auris [4] it was 8 µg/mL (≈ 16.9 µM); with Saccharomyces cerevisiae [5], 0.063 µg/mL; with Saccharomyces cerevisiae [6], 0.008 µg/mL. In addition, the MIC was found to be 0.016 µg/mL with Saccharomyces cerevisiae [7], 0.008 µg/mL in the series on Saccharomyces cerevisiae [8] and 0.0313 µg/mL with Saccharomyces cerevisiae [9]. Moreover, the Ratio in the series with Candida tropicalis is 32. In addition, in the series on Cryptococcus neoformans, the inhibition result is “Active”. Also, in [10], the Activity is reported as ~ 20%.

A word on the MIC: it is the lowest concentration found to suppress growth.
